# Measurements taken from patent US8012956B2, “Tropane compounds” (Exelixis, Inc., priority 2007, dated 2011).
# Molecular target: HSP90 (Homo sapiens, UniProt P07900)
# Assay: HSP90 inhibition (HSP90 IC50)
# Assay type: biochemical
row,Structure (SMILES),IC50 [nM]
1,"CC(=O)c1ccc(N2[C@@H]3CC[C@H]2C[C@@H](NC(=O)c2ccc(C(N)=O)c(N4CCC4)c2)C3)nc1 [N4-[8-(5-acetylpyridin-2-yl)-8-azabicyclo[3.2.1]oct-3-endo-yl]-2-azetidin-1-ylbenzene-1,4-dicarboxamide]",2000 to 10000
2,"CC(=O)c1ccc(N2[C@@H]3CC[C@H]2C[C@@H](NC(=O)c2ccc(C(N)=O)c(Br)c2)C3)nc1 [N4-[8-(5-acetylpyridin-2-yl)-8-azabicyclo[3.2.1]oct-3-endo-yl]-2-bromobenzene-1,4-dicarboxamide]",< 500
3,"COc1ccc(Nc2cc(C(=O)N[C@H]3C[C@H]4CC[C@@H](C3)N4c3ccc(C(C)=O)cn3)ccc2C(N)=O)cc1OCCN(C)C [N4-[8-(5-acetylpyridin-2-yl)-8-azabicyclo[3.2.1]oct-3-endo-yl]-2-{[3-{[2-(dimethylamino)ethyl]oxy}-4-(methyloxy)phenyl]amino}benzene-1,4-dicarboxamide]",< 500
4,"CC[C@H](C)Nc1cc(C(=O)NC2CC3CCC(C2)N3c2ccc(C(C)=O)cn2)ccc1C(N)=O (stereo partly drawn) [N4-[8-(5-acetylpyridin-2-yl)-8-azabicyclo[3.2.1]oct-3-endo-yl]-2-{[(1S)-1-methylpropyl]amino}benzene-1,4-dicarboxamide]",< 500
5,"CC(=O)c1ccc(N2[C@@H]3CC[C@H]2C[C@@H](NC(=O)c2ccc(C(N)=O)c(NC4CCNC4)c2)C3)nc1 (stereo partly drawn) [N4-[8-(5-acetylpyridin-2-yl)-8-azabicyclo[3.2.1]oct.3-endo-yl]-2-(pyrrolidin-3-ylamino)benzene-1,4-dicarboxamide]",< 500
6,"NC(=O)c1ccc(C(=O)N[C@H]2C[C@H]3CC[C@@H](C2)N3c2ccc(C(=O)CCC3CCCCC3)cn2)cc1NCC1CC1 [N4-{8-[5-(3-cyclohexylpropanoyl)pyridin-2-yl]-8-azabicyclo[3.2.1]oct-3-endo-yl}-2-[(cyclopropylmethyl)amino]benzene-1,4-dicarboxamide]",1000 to 2000
7,"NC(=O)c1ccc(N2[C@@H]3CC[C@H]2C[C@@H](NC(=O)c2ccc(C(N)=O)c(NC4CCC4)c2)C3)nc1 [N4-{8-[5-(aminocarbonyl)pyridin-2-yl]-8-azabicyclo[3.2.1]oct-3-endo-yl}-2-(cyclobutylamino)benzene-1,4-dicarboxamide]",< 500
8,"NC(=O)c1ccc(N2[C@@H]3CC[C@H]2C[C@@H](NC(=O)c2ccc(C(N)=O)c(OCCN4CCOCC4)c2)C3)nc1 [N4-{8-[5-(aminocarbonyl)pyridin-2-yl]-8-azabicyclo[3.2.1]oct-3-endo-yl}-2-[(2-morpholin-4-ylethyl)oxybenzene-1,4-dicarboxylate]",1000 to 2000
9,"NC(=O)c1ccc(N2C3CCC2CC(NC(=O)c2ccc(C(N)=O)c(N[C@H]4CC[C@H](O)CC4)c2)C3)nc1 (stereo partly drawn) [N4-{8-[5-(aminocarbonyl)pyridin-2-yl]-8-azabicyclo[3.2.1]oct-3-endo-yl}-2-[(4-hydroxycyclohexyl)amino]benzene-1,4-dicarboxamide]",< 500
10,"NC(=O)c1ccc(N2C3CCC2CC(NC(=O)c2ccc(C(N)=O)c(N[C@H]4CC[C@H](N)CC4)c2)C3)nc1 (stereo partly drawn) [N4-{8-[5-(aminocarbonyl)pyridin-2-yl]-8-azabicyclo[3.2.1]oct-3-endo-yl}-2-[(trans-4-aminocyclohexyl)amino]benzene-1,4-dicarboxamide]",< 500
11,"COCCNc1cc(C(=O)N[C@H]2C[C@H]3CC[C@@H](C2)N3c2ccc(C(N)=O)cn2)ccc1C(N)=O [N4-{8-[5-(aminocarbonyl)pyridin-2-yl]-8-azabicyclo[3.2.1]oct-3-endo-yl}-2-{[2-(methyloxy)ethyl]amino}benzene-1,4-dicarboxamide]",< 500
12,"CS(=O)(=O)CCNc1cc(C(=O)N[C@H]2C[C@H]3CC[C@@H](C2)N3c2ccc(C(N)=O)cn2)ccc1C(N)=O [N4-{8-[5-(aminocarbonyl)pyridin-2-yl]-8-azabicyclo[3.2.1]oct-3-endo-yl}-2-{[2-(methylsulfonyl)ethyl]amino}benzene-1,4-dicarboxamide]",< 500
13,"COc1ccc(Nc2cc(C(=O)N[C@H]3C[C@H]4CC[C@@H](C3)N4c3ccc(C(N)=O)cn3)ccc2C(N)=O)cc1OCCN(C)C [N4-{8-[5-(aminocarbonyl)pyridin-2-yl]-8-azabicyclo[3.2.1]oct-3-endo-yl}-2-{[3-{[2-(dimethylamino)ethyl]oxy}-4-(methyloxy)phenyl]amino}benzene-1,4-dicarboxamide]",< 500
14,"NC(=O)c1ccc(C(=O)N[C@H]2C[C@H]3CC[C@@H](C2)N3c2ccc(C(=O)C3CCC3)cn2)cc1NCC1CC1 [N4-{8-[5-(cyclobutylcarbonyl)pyridin-2-yl]-8-azabicyclo[3.2.1]oct-3-endo-yl}-2-[(cyclopropylmethyl)amino]benzene-1,4-dicarboxamide]",1000 to 2000
15,"NC(=O)c1ccc(C(=O)N[C@H]2C[C@H]3CC[C@@H](C2)N3c2ccc(C(=O)C3CCCC3)cn2)cc1NCC1CC1 [N4-{8-[5-(cyclopentylcarbonyl)pyridin-2-yl]-8-azabicyclo[3.2.1]oct-3-endo-yl}-2-[(cyclopropylmethyl)amino]benzene-1,4-dicarboxamide]",2000 to 10000
16,"CCCNc1cc(C(=O)N[C@H]2C[C@H]3CC[C@@H](C2)N3c2ccc(C(=O)C3CC3)cn2)ccc1C(N)=O [N4-{8-[5-(cyclopropylcarbonyl)pyridin-2-yl]-8-azabicyclo[3.2.1]oct-3-endo-yl}-2-(propylamino)benzene-1,4-dicarboxamide]",< 500
17,"NC(=O)c1ccc(C(=O)N[C@H]2C[C@H]3CC[C@@H](C2)N3c2ccc(C(=O)C3CC3)cn2)cc1Nc1ccncc1 [N4-{8-[5-(cyclopropylcarbonyl)pyridin-2-yl]-8-azabicyclo[3.2.1]oct-3-endo-yl}-2-(pyridin-4-ylamino)benzene-1,4-dicarboxamide]",< 500
18,"CC(C)OCCNc1cc(C(=O)N[C@H]2C[C@H]3CC[C@@H](C2)N3c2ccc(C(=O)C3CC3)cn2)ccc1C(N)=O [N4-{8-[5-(cyclopropylcarbonyl)pyridin-2-yl]-8-azabicyclo[3.2.1]oct-3-endo-yl}-2-({2-[(1-methylethyl)oxy]ethyl}amino)benzene-1,4-dicarboxamide]",< 500
19,"CC(Nc1cc(C(=O)N[C@H]2C[C@H]3CC[C@@H](C2)N3c2ccc(C(=O)C3CC3)cn2)ccc1C(N)=O)C1CC1 (stereo partly drawn) [N4-{8-[5-(cyclopropylcarbonyl)pyridin-2-yl]-8-azabicyclo[3.2.1]oct-3-endo-yl}-2-[(1-cyclopropylethyl)amino]benzene-1,4-dicarboxamide]",< 500
20,"CCC(CC)Nc1cc(C(=O)N[C@H]2C[C@H]3CC[C@@H](C2)N3c2ccc(C(=O)C3CC3)cn2)ccc1C(N)=O [N4-{8-[5-(cyclopropylcarbonyl)pyridin-2-yl]-8-azabicyclo[3.2.1]oct-3-endo-yl}-2-[(1-ethylpropyl)amino]benzene-1,4-dicarboxamide]",< 500
21,"CCC(C)Nc1cc(C(=O)N[C@H]2C[C@H]3CC[C@@H](C2)N3c2ccc(C(=O)C3CC3)cn2)ccc1C(N)=O (stereo partly drawn) [N4-{8-[5-(cyclopropylcarbonyl)pyridin-2-yl]-8-azabicyclo[3.2.1]oct-3-endo-yl}-2-[(1-methylpropyl)amino]benzene-1,4-dicarboxamide]",< 500
22,"NC(=O)c1ccc(C(=O)N[C@H]2C[C@H]3CC[C@@H](C2)N3c2ccc(C(=O)C3CC3)cn2)cc1NCC1CC1 [N4-{8-[5-(cyclopropylcarbonyl)pyridin-2-yl]-8-azabicyclo[3.2.1]oct-3-endo-yl}-2-[(cyclopropylmethyl)amino]benzene-1,4-dicarboxamide]",< 500
